What was measured:
PDE6D = target: T1, PDE6D (Homo sapiens, UniProt O43924+Q96SW2); assay: Western blot, degradation of cellular PDE6D in MV-4-11 cells; format: cell-based; details: for Dmax at 1 µM: MV4-11, tested at 1 μM, MV-4-11 cells, 6-8 hours, read-out: % Degradation compared to DMSO, PDE6D
T1 construct: endogenous in cells; host or cells: MV-4-11
Method: (§1) MV-4-11 cells were grown in RPMI 1640 media supplemented with 10% fetal bovine serum, streptomycin and penicillin.
(§2) Cells were cultured at approximately 10^6 cells per mL and incubated in DMSO or the indicated compounds for 6-8 hours. Whole cell extracts were prepared using RIPA lysis buffer according to manufacturer's protocol (Pierce). Briefly, 4×10^6 cells were washed once in PBS, the cell pellets were resuspended in RIPA lysis buffer and allowed to incubate for 15 minutes on ice. Cells debris was removed by centrifugation and the cleared whole cell lysates were transferred to new tubes for further analysis.
(§3) For Western blot analysis, whole cell protein extracts were separated on 4-12% SDS-polyacrylamide gels, transferred to nitrocellulose and probed with the indicated primary antibodies. Membranes were subsequently washed and probed with the appropriate IRDye secondary antibodies (LI-COR). The signal was detected using the Odyssey Imaging System (LI-COR).
(§4) The following antibodies were used in these studies: Anti-PDE6D antibody: Santa Cruz Biotechnology, sc-166854 (Dallas, Tex.); Anti-Ikaros: Abcam, ab191394 (Cambridge, Mass.); anti-CK1α antibody: Abcam, ab108296 (Cambridge, Mass.); β-Actin (8H10D10) mouse monoclonal antibody: Cell Signaling Technology, #3700 (Danvers, Mass.); IRDye 680RD Goat anti-rabbit antibody: LI-COR, 926-68071 (Lincoln, Nebr.); and IRDye 800CW Goat anti-mouse antibody: LI-COR, 926-32210 (Lincoln, Nebr.).
(§5) The % degradation values are reported as “A”, “B”, “C”, or “D.” “A” represents a % degradation value of less than 25% (value<25%); “B” represents a % degradation value of equal to or more than 25% and less than 50% (25%≤value<50%); “C” represents a % degradation value of equal to or more than 50% and less than 75% (50%≤value<75%); and “D” represents a % degradation value of equal to or more than 75% (value≥75%). […] was used as control.

CK1α = target: T2, CK1α (Homo sapiens, UniProt P48729+Q96SW2); assay: Western blot, degradation of cellular CK1α in MV-4-11 cells; format: cell-based; details: MV4-11, tested at 1 μM, 6-8 hours, read-out: % Degradation compared to DMSO, CK1α
T2 construct: endogenous in cells; host or cells: MV-4-11
Method: as §1, §2, §3, §4, §5

Ikaros = target: T3, Ikaros (Homo sapiens, UniProt Q13422+Q96SW2); assay: Western blot, degradation of cellular Ikaros in MV-4-11 cells; format: cell-based; details: MV4-11, tested at 1 μM, 6-8 hours, read-out: % Degradation compared to DMSO, Ikaros
T3 construct: endogenous in cells; host or cells: MV-4-11
Method: as §1, §2, §3, §4, §5

IL-1β = IL-1β inhibition, LPS-induced PBMCs or CD14+ monocytes, Meso Scale assay; format: cell-based; details: LPS 100 ng/mL 18-24 h, read-out: % Inhibition compared to DMSO, IL-1β; for inhibition at 1 µM: tested at 1 μM; for inhibition at 10 µM: tested at 10 μM
Method: (§6) Either frozen primary blood mononuclear cells (PBMCs) or frozen CD14+ mobilized peripheral blood monocytes were purchased from AllCells (PB003F, Normal Peripheral Blood MNC (Alameda, Calif.)). Cells were quick thawed, washed 1-time with RPMI-1640 (10% FBS/1% Pen-Strep) and plated in 96 well plates at 200,000 cells per well. Cells were pretreated with DMSO only or with the indicated compound for 1 h and then induced with 100 ng/mL lipopolysaccharide (LPS) for 18-24 h. The supernatant was analyzed for IL-1β, IL-6, and TNFα, using Meso Scale assay according to manufacturer's protocol. The negative control wells were treated with DMSO.
(§7) IL-1β, IL-6 and TNFα activities were tested at two different concentrations (1 μM and 10 μM) and the results are shown in Tables 2 and 3 respectively.

IL-6 = IL-6 inhibition, LPS-induced PBMCs or CD14+ monocytes, Meso Scale assay; format: cell-based; details: LPS 100 ng/mL 18-24 h, read-out: % Inhibition compared to DMSO, IL-6; for inhibition at 1 µM: tested at 1 μM; for inhibition at 10 µM: tested at 10 μM
Method: as §6, §7

TNFα = TNFα inhibition, LPS-induced PBMCs or CD14+ monocytes, Meso Scale assay; format: cell-based; details: LPS 100 ng/mL 18-24 h, read-out: % Inhibition compared to DMSO, TNFα; for inhibition at 1 µM: tested at 1 μM; for inhibition at 10 µM: tested at 10 μM
Method: as §6, §7

IL-2 = IL-2 inhibition assay, anti-CD3 (OKT3) stimulated PBMCs, Mesoscale IL-2 analysis; format: cell-based, human; details: for fold induction at 1 µM / fold induction at 10 µM: Homo sapiens, PBMC, PBMCs on anti-CD3, 24 h, fold difference from DMSO control, read-out: IL-2, % Induction compared to DMSO
Method: For the IL-2 analysis, 96 well plates were precoated with 1 μg/mL anti-human CD3 antibody (OKT3, eBioscience Inc., San Diego, Calif.). After washing with PBS, the indicated compound was added (50 μL/well) followed by PBMCs diluted at 3-4 million cells/mL (150 μL/well). Plates were incubated for 24 h and the supernatants collected for Mesoscale IL-2 analysis. IL-2 activity is measured as fold difference from the DMSO control. […]
In Table 4, the fold-change values are reported as “A”, “B”, “C”, or “D”. “A” represents a fold-change value of equal to or less than 0.5 (value≤0.5); “B” represents a fold-change value of more than 0.5 and equal to or less than 1 (0.5<value≤1); “C” represents a fold-change value of more than 1 and less than 1.5 (1<value<1.5); and “D” represents a fold-change value of equal to or more than 1.5 (value≥1.5).

T1 sequence (O43924 whole entry): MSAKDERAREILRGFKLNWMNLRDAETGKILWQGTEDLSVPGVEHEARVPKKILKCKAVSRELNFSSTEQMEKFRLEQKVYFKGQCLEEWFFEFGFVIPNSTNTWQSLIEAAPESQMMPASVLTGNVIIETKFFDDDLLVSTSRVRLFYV
T1 sequence (Q96SW2 whole entry): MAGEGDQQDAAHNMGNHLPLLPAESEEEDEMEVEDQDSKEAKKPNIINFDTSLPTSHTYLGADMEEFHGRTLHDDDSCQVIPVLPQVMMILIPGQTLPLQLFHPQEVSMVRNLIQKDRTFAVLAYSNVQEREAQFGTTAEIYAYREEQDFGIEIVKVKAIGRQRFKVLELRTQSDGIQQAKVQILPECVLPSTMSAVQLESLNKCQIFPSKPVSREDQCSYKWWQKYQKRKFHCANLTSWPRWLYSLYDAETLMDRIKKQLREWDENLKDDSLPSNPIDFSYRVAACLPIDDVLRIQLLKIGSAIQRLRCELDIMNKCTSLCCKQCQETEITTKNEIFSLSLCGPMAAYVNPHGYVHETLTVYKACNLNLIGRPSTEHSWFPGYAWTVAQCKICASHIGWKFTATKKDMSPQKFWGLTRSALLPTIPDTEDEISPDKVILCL
T1 sequence (Q16531 whole entry partner): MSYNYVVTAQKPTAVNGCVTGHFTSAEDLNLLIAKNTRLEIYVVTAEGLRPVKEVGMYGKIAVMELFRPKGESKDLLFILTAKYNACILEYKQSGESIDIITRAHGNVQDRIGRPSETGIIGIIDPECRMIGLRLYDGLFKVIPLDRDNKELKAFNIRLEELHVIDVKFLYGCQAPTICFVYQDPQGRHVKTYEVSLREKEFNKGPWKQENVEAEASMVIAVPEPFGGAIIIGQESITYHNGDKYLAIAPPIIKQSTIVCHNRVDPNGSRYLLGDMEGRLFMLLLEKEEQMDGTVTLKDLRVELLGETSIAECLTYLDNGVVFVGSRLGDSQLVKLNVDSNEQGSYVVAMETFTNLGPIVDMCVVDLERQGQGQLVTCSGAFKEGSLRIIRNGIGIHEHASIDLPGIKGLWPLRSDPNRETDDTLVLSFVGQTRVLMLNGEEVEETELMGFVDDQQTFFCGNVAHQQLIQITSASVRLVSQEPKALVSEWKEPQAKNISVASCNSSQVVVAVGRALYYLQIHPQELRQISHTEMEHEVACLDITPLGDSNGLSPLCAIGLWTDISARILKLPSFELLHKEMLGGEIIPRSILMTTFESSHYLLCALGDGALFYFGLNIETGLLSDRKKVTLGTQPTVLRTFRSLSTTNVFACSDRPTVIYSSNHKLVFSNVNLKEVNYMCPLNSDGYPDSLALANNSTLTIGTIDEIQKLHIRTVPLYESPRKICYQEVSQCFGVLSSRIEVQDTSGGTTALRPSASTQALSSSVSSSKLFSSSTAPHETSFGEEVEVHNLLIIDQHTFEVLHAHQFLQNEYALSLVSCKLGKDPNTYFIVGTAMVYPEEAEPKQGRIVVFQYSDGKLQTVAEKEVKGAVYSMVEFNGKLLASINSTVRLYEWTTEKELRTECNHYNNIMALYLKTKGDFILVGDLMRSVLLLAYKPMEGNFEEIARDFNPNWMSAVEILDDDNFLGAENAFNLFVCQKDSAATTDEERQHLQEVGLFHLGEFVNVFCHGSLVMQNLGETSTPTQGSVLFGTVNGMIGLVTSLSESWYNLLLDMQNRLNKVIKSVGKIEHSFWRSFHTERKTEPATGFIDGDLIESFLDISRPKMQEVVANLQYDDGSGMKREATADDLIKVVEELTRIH
T3 sequence (Q13422 whole entry): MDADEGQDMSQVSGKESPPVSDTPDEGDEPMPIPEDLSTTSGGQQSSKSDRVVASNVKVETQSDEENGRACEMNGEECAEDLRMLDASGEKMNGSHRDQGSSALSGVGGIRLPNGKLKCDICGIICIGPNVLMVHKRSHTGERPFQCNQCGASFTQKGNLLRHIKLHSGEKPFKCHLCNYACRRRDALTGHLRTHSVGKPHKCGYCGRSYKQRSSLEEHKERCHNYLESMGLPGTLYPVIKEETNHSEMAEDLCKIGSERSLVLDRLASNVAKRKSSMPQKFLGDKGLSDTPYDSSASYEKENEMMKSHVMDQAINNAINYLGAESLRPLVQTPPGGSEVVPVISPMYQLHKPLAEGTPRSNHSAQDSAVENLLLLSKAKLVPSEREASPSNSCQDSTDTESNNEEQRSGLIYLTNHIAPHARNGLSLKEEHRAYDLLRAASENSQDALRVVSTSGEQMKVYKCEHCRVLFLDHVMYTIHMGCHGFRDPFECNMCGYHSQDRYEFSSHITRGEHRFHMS
T3 sequence (Q96SW2 whole entry): as the sequence (Q96SW2 whole entry) above
T3 sequence (Q16531 whole entry partner): as the sequence (Q16531 whole entry partner) above
T2 sequence (P48729 whole entry): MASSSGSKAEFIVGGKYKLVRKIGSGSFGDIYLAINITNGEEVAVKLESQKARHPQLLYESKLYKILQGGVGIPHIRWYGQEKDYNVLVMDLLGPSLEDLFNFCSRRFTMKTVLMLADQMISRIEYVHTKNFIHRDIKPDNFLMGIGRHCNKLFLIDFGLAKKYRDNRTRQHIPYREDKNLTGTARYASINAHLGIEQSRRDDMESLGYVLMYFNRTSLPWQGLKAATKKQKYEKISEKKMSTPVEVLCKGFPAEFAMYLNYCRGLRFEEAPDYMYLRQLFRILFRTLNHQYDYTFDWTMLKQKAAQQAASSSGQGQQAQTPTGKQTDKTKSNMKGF
T2 sequence (Q96SW2 whole entry): as the sequence (Q96SW2 whole entry) above
T2 sequence (Q16531 whole entry partner): as the sequence (Q16531 whole entry partner) above

Row | SMILES | % Degradation of PDE6D (PDE6D; 1 μM, comparison with comparative compound A) | Dmax at 1 µM (PDE6D) | Dmax at 1 µM (CK1α) | Dmax at 1 µM (Ikaros) | inhibition at 1 µM (IL-1β) | inhibition at 10 µM (IL-1β) | inhibition at 1 µM (IL-6) | inhibition at 10 µM (IL-6) | inhibition at 1 µM (TNFα) | inhibition at 10 µM (TNFα) | effect on IL-2 (in words) (IL-2; 10 μM) | IL-2, % Induction compared to DMSO (IL-2; 10 μM, comparison with comparative compound B) | fold induction at 1 µM (IL-2) | fold induction at 10 µM (IL-2; 10 μM)
1 | O=C1CCC(N2Cc3c(cc(F)cc3C3CCCC3)C2=O)C(=O)N1 (centres unmarked) [Compound 1] | D (a % degradation value of equal to or more than 75% (value≥75%)) | ≥ 75% | ≥ 75% | 50 to 75% | 10 to 25% | 25 to 50% | < 10% | < 10% | 25 to 50% | 25 to 50% | strong inhibition of IL-2 (downregulation) | A (a fold-change value of equal to or less than 0.5 (value≤0.5)) | ≤ 0.5 | ≤ 0.5
2 | O=C1CCC(N2Cc3c(cccc3C3CCCC3)C2=O)C(=O)N1 (centres unmarked) [Compound 2] |  | ≥ 75% | 25 to 50% | < 25% | < 10% | 10 to 25% | 10 to 25% | 10 to 25% | < 10% | 10 to 25% |  |  | 0.5 to 1 | 0.5 to 1
3 | O=C1CCC(N2Cc3c(cc(F)cc3C3CCCCC3)C2=O)C(=O)N1 (centres unmarked) [Compound 3] |  | ≥ 75% | 50 to 75% | 25 to 50% | < 10% | < 10% | < 10% | < 10% | < 10% | < 10% |  |  | ≤ 0.5 | ≤ 0.5
4 | CC1(N2Cc3c(cc(F)cc3C3CCCC3)C2=O)CCC(=O)NC1=O (centres unmarked) [Compound 4, 3-(4-cyclopentyl-6-fluoro-1-oxoisoindolin-2-yl)-3-methylpiperidine-2,6-dione] |  | < 25% | < 25% | < 25% | < 10% | 10 to 25% | < 10% | < 10% | 25 to 50% | > 50% |  |  | 0.5 to 1 | 0.5 to 1
5 | O=C1CCC(N2Cc3c(cc(F)cc3C3CC3)C2=O)C(=O)N1 (centres unmarked) [Compound 5] |  | ≥ 75% | ≥ 75% | 25 to 50% | 25 to 50% | > 50% | < 10% | < 10% | 25 to 50% | > 50% |  |  | ≤ 0.5 | ≤ 0.5
6 | CC1CC(=O)NC(=O)C1N1Cc2c(cc(F)cc2C2CCCC2)C1=O (centres unmarked) [Compound 6, 3-(4-cyclopentyl-6-fluoro-1-oxoisoindolin-2-yl)-4-methylpiperidine-2,6-dione] |  | ≥ 75% | 25 to 50% | < 25% | < 10% | 10 to 25% | < 10% | < 10% | 10 to 25% | > 50% |  |  | 0.5 to 1 | ≤ 0.5
7 | CC1(C)CCC(c2cc(F)cc3c2CN(C2CCC(=O)NC2=O)C3=O)CC1 (centres unmarked) [Compound 7] |  | ≥ 75% | < 25% | < 25% | < 10% | < 10% | 10 to 25% | < 10% | < 10% | 10 to 25% |  |  | 1 to 1.5 | 0.5 to 1

Reference: US11352338B2, “Substituted isoindolinones” (BioTheryX, Inc., priority 2018, dated 2022)
